Results from ChEMBL document CHEMBL1156067, “Pyrimidine-based antagonists of h-MCH-R1 derived from ATC0175: in vitro profiling and in vivo evaluation” (Bioorg Med Chem Lett, 2009).
The source made the active and inactive calls. The calls are words filed in the database; no cut-off is given here.

The compounds below were run against T1, Alpha-2A adrenergic receptor (Homo sapiens, UniProt P08913) (assay: Displacement of [3H]MK-912 from human adrenergic alpha2A receptor).
T1 sequence (P08913 whole entry): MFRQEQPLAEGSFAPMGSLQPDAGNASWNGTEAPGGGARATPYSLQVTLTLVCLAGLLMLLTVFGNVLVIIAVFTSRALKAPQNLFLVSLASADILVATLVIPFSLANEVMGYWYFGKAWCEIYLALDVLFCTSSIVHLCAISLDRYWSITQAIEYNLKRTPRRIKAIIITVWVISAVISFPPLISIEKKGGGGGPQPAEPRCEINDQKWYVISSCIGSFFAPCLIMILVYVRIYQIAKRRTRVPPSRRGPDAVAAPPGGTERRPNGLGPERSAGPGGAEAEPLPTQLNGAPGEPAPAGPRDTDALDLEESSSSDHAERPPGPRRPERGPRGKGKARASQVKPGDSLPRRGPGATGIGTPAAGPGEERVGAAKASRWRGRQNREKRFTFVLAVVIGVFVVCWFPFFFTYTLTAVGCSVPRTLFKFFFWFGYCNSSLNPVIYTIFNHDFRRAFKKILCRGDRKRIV

Compound | IC50
Cc1cnc(N[C@H]2CC[C@@H](NC(=O)c3ccc(F)cc3)CC2)nc1N(C)C | 470 nM
Cc1cc(N(C)C)nc(N[C@H]2CC[C@@H](NC(=O)c3ccc(Cl)cc3)CC2)n1 | 730 nM

The compounds below were run against T2, Melanin-concentrating hormone receptor 1 (Homo sapiens, UniProt Q99705) (assay: Antagonist activity at CART form of human MCH1 receptor expressed in HEK293 cells coexpressing Galphaq assessed as inhibition of MCH-induced intracellular calcium level up to 10 uM by FLIPR assay).
Type: functional, cell-based
Target sequence in this assay (Q99705 whole entry): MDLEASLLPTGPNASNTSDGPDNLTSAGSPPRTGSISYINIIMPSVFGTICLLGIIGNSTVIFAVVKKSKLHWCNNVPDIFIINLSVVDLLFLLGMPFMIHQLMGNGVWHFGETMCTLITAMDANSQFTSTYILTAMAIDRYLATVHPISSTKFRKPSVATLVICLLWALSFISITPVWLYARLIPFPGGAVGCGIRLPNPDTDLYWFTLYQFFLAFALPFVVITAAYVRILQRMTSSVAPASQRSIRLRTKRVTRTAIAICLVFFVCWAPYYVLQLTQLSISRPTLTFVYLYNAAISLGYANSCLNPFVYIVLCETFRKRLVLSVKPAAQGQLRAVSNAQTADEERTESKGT

Compound | Activity
CCNc1nc(N[C@H]2CC[C@@H](CNC(=O)c3cc(C(F)(F)F)cc(C(F)(F)F)c3)CC2)ncc1C | inactive
CNc1nc(N[C@H]2CC[C@@H](NC(=O)c3ccc(F)c(F)c3)CC2)ncc1C | inactive
Cc1cnc(N[C@H]2CC[C@@H](CNC(=O)c3cc(C(F)(F)F)cc(C(F)(F)F)c3)CC2)nc1N1CCCC1 | inactive
CN(C)c1ccnc(N[C@H]2CC[C@@H](NC(=O)c3ccc(F)c(F)c3)CC2)n1 | inactive
CCNc1nc(N[C@H]2CC[C@@H](NC(=O)c3ccc(F)c(F)c3)CC2)ncc1C | inactive
Cc1cnc(N[C@H]2CC[C@@H](NC(=O)c3ccc(F)c(F)c3)CC2)nc1NC(C)C | inactive

Each compound was assayed against T2, Melanin-concentrating hormone receptor 1 (assay: Antagonist activity at CART form of human MCH1 receptor expressed in HEK293 cells coexpressing Galphaq assessed as inhibition of MCH-induced intracellular calcium level by FLIPR assay).
Type: functional, cell-based
Target sequence in this assay (Q99705 whole entry, looked up): as the sequence (Q99705 whole entry) above

Compound | IC50
COc1cccc(C(=O)N[C@H]2CC[C@@H](Nc3nc(C)cc(N(C)C)n3)CC2)c1 | 7.6 nM
Cc1cnc(N[C@H]2CC[C@@H](NC(=O)c3ccc(F)cc3)CC2)nc1N(C)C | 6 nM
Cc1cc(N(C)C)nc(N[C@H]2CC[C@@H](NC(=O)c3ccc(Cl)cc3)CC2)n1 | 16 nM

Each compound was assayed against T3, Alpha-1A adrenergic receptor (Homo sapiens, UniProt P35348) (assay: Displacement of [3H]prazosin from human adrenergic alpha1A receptor).
T3 sequence (P35348 whole entry): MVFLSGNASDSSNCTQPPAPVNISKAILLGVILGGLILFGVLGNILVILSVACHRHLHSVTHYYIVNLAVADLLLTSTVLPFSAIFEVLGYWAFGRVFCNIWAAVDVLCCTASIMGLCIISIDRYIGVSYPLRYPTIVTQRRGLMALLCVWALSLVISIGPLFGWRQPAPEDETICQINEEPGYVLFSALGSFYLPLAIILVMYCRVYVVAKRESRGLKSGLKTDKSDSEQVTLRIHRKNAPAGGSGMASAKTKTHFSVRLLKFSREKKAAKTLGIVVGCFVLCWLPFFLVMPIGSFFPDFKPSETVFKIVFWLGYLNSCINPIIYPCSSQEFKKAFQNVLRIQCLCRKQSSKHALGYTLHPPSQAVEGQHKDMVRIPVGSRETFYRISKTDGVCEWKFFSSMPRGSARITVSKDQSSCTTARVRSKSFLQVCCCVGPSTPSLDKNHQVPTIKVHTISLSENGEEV

Compound | IC50
Cc1cnc(N[C@H]2CC[C@@H](NC(=O)c3ccc(F)cc3)CC2)nc1N(C)C | 7500 nM
Cc1cc(N(C)C)nc(N[C@H]2CC[C@@H](NC(=O)c3ccc(Cl)cc3)CC2)n1 | 3000 nM

These compounds were tested against 5-hydroxytryptamine receptor 2B (Homo sapiens, UniProt P41595) (assay: Displacement of [3H]rauwolsine from human 5HT2B receptor).
Chain of 5-hydroxytryptamine receptor 2B (P41595 whole entry): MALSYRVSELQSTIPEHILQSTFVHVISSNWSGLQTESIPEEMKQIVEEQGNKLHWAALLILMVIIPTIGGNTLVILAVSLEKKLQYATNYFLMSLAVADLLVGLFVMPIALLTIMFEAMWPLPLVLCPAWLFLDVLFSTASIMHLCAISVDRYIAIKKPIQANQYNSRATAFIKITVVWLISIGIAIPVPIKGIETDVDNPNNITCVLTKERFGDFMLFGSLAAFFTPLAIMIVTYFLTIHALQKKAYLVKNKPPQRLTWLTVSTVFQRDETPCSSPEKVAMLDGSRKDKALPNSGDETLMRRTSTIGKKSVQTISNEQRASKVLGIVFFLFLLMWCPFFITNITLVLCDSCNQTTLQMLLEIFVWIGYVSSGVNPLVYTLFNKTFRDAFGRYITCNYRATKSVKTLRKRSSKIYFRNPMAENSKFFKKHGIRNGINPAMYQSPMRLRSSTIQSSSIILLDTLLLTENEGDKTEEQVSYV

Compound | IC50
Cc1cnc(N[C@H]2CC[C@@H](NC(=O)c3ccc(F)cc3)CC2)nc1N(C)C | 300 nM
Cc1cc(N(C)C)nc(N[C@H]2CC[C@@H](NC(=O)c3ccc(Cl)cc3)CC2)n1 | 170 nM

What follows are compounds tested against Histamine H1 receptor (Homo sapiens, UniProt P35367) (assay: Displacement of [3H]pyrilamine from human histamine H1 receptor).
Chain of Histamine H1 receptor (P35367 whole entry): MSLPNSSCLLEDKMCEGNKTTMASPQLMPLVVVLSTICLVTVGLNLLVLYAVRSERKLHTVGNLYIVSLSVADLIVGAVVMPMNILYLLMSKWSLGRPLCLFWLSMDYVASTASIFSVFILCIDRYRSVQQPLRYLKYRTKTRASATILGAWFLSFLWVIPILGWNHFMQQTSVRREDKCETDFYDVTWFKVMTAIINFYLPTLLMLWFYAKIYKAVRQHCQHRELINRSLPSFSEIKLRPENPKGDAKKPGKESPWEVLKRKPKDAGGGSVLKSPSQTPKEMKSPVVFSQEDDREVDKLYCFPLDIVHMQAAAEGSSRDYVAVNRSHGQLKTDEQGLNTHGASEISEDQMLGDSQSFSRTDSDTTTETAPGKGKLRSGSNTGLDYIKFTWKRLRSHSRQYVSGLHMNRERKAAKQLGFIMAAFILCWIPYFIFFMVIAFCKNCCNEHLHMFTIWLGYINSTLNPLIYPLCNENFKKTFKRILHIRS

Compound | IC50
Cc1cnc(N[C@H]2CC[C@@H](NC(=O)c3ccc(F)cc3)CC2)nc1N(C)C | 810 nM
Cc1cc(N(C)C)nc(N[C@H]2CC[C@@H](NC(=O)c3ccc(Cl)cc3)CC2)n1 | 800 nM
